Data on 23 molecules can be found in US8642657B2 (Gruenenthal GmbH, priority 2003, dated 2014).

Usually Ki stands for the dissociation constant of the complex between target and ligand, obtained from inhibition or displacement. As usually defined, the melting point is the temperature of the solid-liquid transition.

Data set [1] deals with T1, rat VR1 (Rattus norvegicus, UniProt O35433).
T1 construct: expressed in transfected cells
Nature of the data set: 45Ca2+-uptake assay in CHO/VR1 cells, antagonism of capsaicin-stimulated uptake. The format is cell-based. The conditions noted are these: 45Ca2+ uptake stimulated by 50 nM capsaicin. The protocol:
(§1) Initial stocks were dissolved in DMSO. For the binding assays, compounds were diluted in with DPBS with Ca^2+ and Mg^2+ and 0.25 mg/mL bovine serum albumin. For the calcium uptake assays, compounds were diluted in DMEM with 0.25 mg/mL bovine serum albumin.
Molecules were characterized to determine whether they were full agonists, partial agonists, or antagonists. For studies of ^45Ca^2+ uptake by CHO/VR1 cells (Tet-off cells), the cells were plated in 24-well plates to yield a cell density 20-40% of that required to produce confluence. The next day the medium was changed to remove the tetracycline and induce VR1 expression. Experiments were performed approximately 36-40 hours after induction. For ^45Ca^2+ uptake assay, cells were incubated for 5 min at 37° C. in a total volume of 400 μL of serum free DMEM (containing 1.8 mM CaCl2) in the presence of 0.25 mg/mL BSA (Sigma), 1 μCi/mL ^45Ca^2+ (5-30 Ci/g from ICN, CA), and increasing concentrations of the compound to be tested. Immediately after the incubation, extracellular ^45Ca^2+ was removed by washing the cells three times with cold DPBS (containing 1.8 mM CaCl2). Then 400 μl RIPA buffer (50 mM Tris pH 7.4; 150 mM NaCl; 1% Triton X-100; 0.1% SDS; 1% sodium deoxycholate) was added to each well in order to lyse the cells. Plates were shaken slowly for 20 min; then 306 μL of cell lysate was transferred from each well into a scintillation vial and radioactivity was determined by scintillation counting. For each data point in each experiment, four wells were assayed. Data from these experiments were analyzed by computer fit to the Hill equation. At least 3 separate experiments were carried out for each compound. In order to determine antagonist activity, studies were performed in exactly the same fashion with the exception that 50 nM capsaicin was added to the assay mixture to stimulate ^45Ca^2+ uptake.

Data set [2] concerns the target T1, rat VR1. Briefly: [3H]resiniferatoxin (RTX) competition binding assay, VR1-transfected CHO cells. How it is done: The pUHG102 VR1 plasmid was transfected into CHO cells containing the pTet Off regulatory plasmid (Clontech). In these cells, expression of the VR1 is repressed in the presence of tetracycline but is induced upon removal of the antibiotic. Stable clones were isolated in culture medium containing puromycin (10 μg/mL) and maintained in HAM F12 medium supplemented with tetracycline (1 μg/mL), 5 μg/ml geniticin, 25 mM HEPES, 10% FBS. Cells utilized for assays were grown in culture medium without antibiotic for 48 h before use. Cells were seeded in T75 cell culture flasks in media without antibiotics and grown to approximately 90% confluence. The flasks were then washed with PBS and harvested in 0.25% trypsin, 1 mM EDTA. The cells were pelleted by gentle centrifugation and stored at −20° C. until assay.
Competition Binding Assay
Binding studies with [^3H]resiniferatoxin (RTX) were carried out as described previously with minor modifications (Szallasi et al., 1992). Binding assay mixtures were set up on ice and contained 50-100 pM [^3H]RTX, various concentrations of competing ligands, 0.25 mg/mL BSA (Cohn fraction V), and about 5×10^5 VR1-transfected cells. The final volume was adjusted to 350 μL with DPBS with Ca^2+ and Mg^2+ and 0.25 mg/mL bovine serum albumin. Non-specific binding was determined in the presence of 100 nM nonradioactive RTX. The binding reaction was initiated by transferring the assay mixtures to a 37° C. water bath and was terminated after a 60 min incubation period by cooling the tubes on ice. To reduce non-specific binding, 200 μg/ml α-glycoprotein was added. Membrane-bound RTX was then separated from the free by pelleting the membranes in a Beckman 12 benchtop centrifuge (15 min, maximal velocity), the tips of the tubes containing the pellets were cut off, and the radioactivity was determined by scintillation counting. Equilibrium binding parameters (Ki and cooperativity) were determined by fitting the Hill equation to the measured values with the aid of the program MicroCal Origin 6.0.
as §1

[3] abbreviates: competition with [3H]RTX, rat VR1 in CHO cells, read-out: Ki (nM) Binding Affinity.

T1 sequence (O35433 whole entry): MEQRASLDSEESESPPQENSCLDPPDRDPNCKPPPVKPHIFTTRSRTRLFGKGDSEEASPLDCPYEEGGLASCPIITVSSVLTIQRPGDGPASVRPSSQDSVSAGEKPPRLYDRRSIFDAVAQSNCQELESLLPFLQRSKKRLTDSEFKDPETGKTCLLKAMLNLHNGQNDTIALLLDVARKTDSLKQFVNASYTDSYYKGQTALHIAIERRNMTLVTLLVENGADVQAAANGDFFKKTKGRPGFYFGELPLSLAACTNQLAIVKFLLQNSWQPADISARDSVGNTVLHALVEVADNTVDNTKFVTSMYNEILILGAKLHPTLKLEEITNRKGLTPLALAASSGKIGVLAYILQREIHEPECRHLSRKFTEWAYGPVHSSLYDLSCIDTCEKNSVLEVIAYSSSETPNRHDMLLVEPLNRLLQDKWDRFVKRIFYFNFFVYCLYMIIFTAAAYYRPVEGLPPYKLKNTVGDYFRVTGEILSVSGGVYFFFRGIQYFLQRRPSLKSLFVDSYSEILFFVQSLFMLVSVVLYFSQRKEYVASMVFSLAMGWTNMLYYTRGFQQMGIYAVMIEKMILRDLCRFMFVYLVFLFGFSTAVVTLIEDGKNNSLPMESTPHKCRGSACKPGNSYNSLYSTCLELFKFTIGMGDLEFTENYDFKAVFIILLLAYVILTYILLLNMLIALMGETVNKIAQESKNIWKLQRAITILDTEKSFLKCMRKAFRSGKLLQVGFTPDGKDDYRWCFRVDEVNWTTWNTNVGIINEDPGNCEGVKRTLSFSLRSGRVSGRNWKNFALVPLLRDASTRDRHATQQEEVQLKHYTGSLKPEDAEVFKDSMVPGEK

Molecule `CC(C(=O)NCc1ccc(C(C)(C)C)cc1)c1ccc(NS(C)(=O)=O)c(F)c1` (centres unmarked) [1-51, N-(4-tert-Butylbenzyl)-2-[3-fluoro-4-(methylsulfonylamino)phenyl]propionamide] yielded a melting point of 52 to 54 °C. For the same molecule, the Ki at rat VR1 [1] was found to be 5.47 nM. The affinity on rat VR1 [2], expressed as Ki, was 58.4 nM.

`CC(C(=O)NCc1ccc(C(C)(C)C)cc1)c1ccc(NS(C)(=O)=O)c(Cl)c1` (centres unmarked) [1-52, N-(4-tert-Butylbenzyl)-2-[3-chloro-4-(methylsulfonylamino)phenyl]propionamide] gave a melting point of 126 to 129 °C. The affinity at rat VR1 [1], expressed as Ki, was 29.5 nM. In addition, the Ki at rat VR1 [2] (setting [3]) stood at 30.7 nM.

Take `CC(C(=O)NCc1ccc(C(C)(C)C)cc1)c1ccc(NS(C)(=O)=O)c(Br)c1` (centres unmarked) [1-53, N-(4-tert-Butylbenzyl)-2-[3-bromo-4-(methylsulfonylamino)phenyl]propionamide]: the melting point fell in the range of 66 to 67 °C. The inhibition constant Ki at rat VR1 [1] amounted to 24.9 nM. Moreover, at rat VR1 [2] (setting [3]), the inhibition constant (Ki) was 7.41 nM.

In turn, `CC(C(=O)NCc1ccc(C(C)(C)C)cc1)c1ccc(NS(C)(=O)=O)c(I)c1` (centres unmarked) [1-54, N-(4-tert-Butylbenzyl)-2-[3-iodo-4-(methylsulfonylamino)phenyl]propionamide] yielded a melting point of 71 °C. The molecule further yielded a Ki at rat VR1 [1] of 29.9 nM. For the same molecule, at rat VR1 [2] (setting [3]), the Ki turned out to be 23.3 nM.

As to `CC(C(=O)NCc1ccc(C(C)(C)C)cc1)c1cc(F)c(NS(C)(=O)=O)c(F)c1` (centres unmarked) [1-55, N-(4-tert-Butylbenzyl)-2-[3,5-difluoro-4-(methylsulfonylamino)phenyl]propionamide], the melting point was in the range of 80 to 81 °C. The inhibition constant Ki at rat VR1 [1] turned out to be 7.38 nM. On rat VR1 [2] (setting [3]), the inhibition constant (Ki) turned out to be 19.9 nM.

Molecule `CC(C(=O)NCc1ccc(C(C)(C)C)cc1)c1ccc(NS(C)(=O)=O)c(C#N)c1` (centres unmarked) [1-56, N-(4-tert-Butylbenzyl)-2-[3-cyano-4-(methylsulfonylamino)phenyl]propionamide] gave a melting point of 102 to 105 °C. At rat VR1 [1], this molecule registered a Ki of 467 nM. Further, on rat VR1 [2] (setting [3]), the inhibitory constant (Ki) worked out at 344 nM.

The molecule `COC(=O)c1cc(C(C)C(=O)NCc2ccc(C(C)(C)C)cc2)ccc1NS(C)(=O)=O` (centres unmarked) [1-59, N-(4-tert-Butylbenzyl)-2-[3-(methoxycarbonyl)-4-(methylsulfonylamino)phenyl]propionamide] gave a melting point of 142 to 144 °C. In addition, the inhibition constant Ki at rat VR1 [1] amounted to 951 nM. At rat VR1 [2] (setting [3]), the inhibition constant (Ki) is 1610 nM.

For the molecule `C[C@H](C(=O)NCc1ccc(C(C)(C)C)cc1)c1ccc(NS(C)(=O)=O)c(F)c1` [3-5, N-(4-tert-Butylbenzyl)-(2S)-2-[3-fluoro-4-(methylsulfonylamino)phenyl]propionamide], the figures for the Ki at rat VR1 [1] and at rat VR1 [2] were 6.87 nM and 43.9 nM, respectively.

Regarding `C[C@@H](C(=O)NCc1ccc(C(C)(C)C)cc1)c1ccc(NS(C)(=O)=O)c(F)c1` [3-6, N-(4-tert-Butylbenzyl)-(2R)-2-[3-fluoro-4-(methylsulfonylamino)phenyl]propionamide], the inhibition constant (Ki) is 102 nM on rat VR1 [1] and 458 nM on rat VR1 [2].

As to `Cc1ccc(CCCNC(=O)[C@H](C)c2ccc(NS(C)(=O)=O)c(F)c2)cc1C` [4-16, N-[3-(3,4-Dimethylphenyl)propyl]-(2R)-2-[3-fluoro-4-(methylsulfonylamino)phenyl]propionamide], the Ki at rat VR1 [1] came out at 204 nM; at rat VR1 [2] (setting [3]), 944 nM.

For the molecule `Cc1ccc(CCCNC(=O)[C@@H](C)c2ccc(NS(C)(=O)=O)c(F)c2)cc1C` [4-17, N-[3-(3,4-Dimethylphenyl)propyl]-(2S)-2-[3-fluoro-4-(methylsulfonylamino)phenyl]propionamide], the inhibition constant Ki on rat VR1 [1] worked out at 33.7 nM; at rat VR1 [2], 236 nM.

Consider `C[C@H](C(=O)NC[C@@H](COC(=O)C(C)(C)C)Cc1ccccc1)c1ccc(NS(C)(=O)=O)c(F)c1` [6-6, N-[(2S)-2-Benzyl-3-(pivaloyloxy)propyl]-(2S)-2-[3-fluoro-4-(methylsulfonylamino)phenyl]propionamide], for which the figures for the Ki at rat VR1 [1] and at rat VR1 [2] (setting [3]) were 10 nM and 20.3 nM, respectively.

As for `C[C@@H](C(=O)NC[C@@H](COC(=O)C(C)(C)C)Cc1ccccc1)c1ccc(NS(C)(=O)=O)c(F)c1` [6-7, N-[(2S)-2-Benzyl-3-(pivaloyloxy)propyl]-(2R)-2-[3-fluoro-4-(methylsulfonylamino)phenyl]propionamide], the Ki at rat VR1 [1] amounted to 205 nM; at rat VR1 [2] (setting [3]), 372 nM.

For the molecule `C[C@@H](C(=O)NC[C@H](COC(=O)C(C)(C)C)Cc1ccccc1)c1ccc(NS(C)(=O)=O)c(F)c1` [6-8, N-[(2R)-2-Benzyl-3-(pivaloyloxy)propyl]-(2R)-2-[3-fluoro-4-(methylsulfonylamino)phenyl]propionamide], the Ki at rat VR1 [1] was 98.3 nM; at rat VR1 [2] (setting [3]), 297 nM.

Take `C[C@@H](NC(=S)NCc1ccc(C(C)(C)C)cc1)c1ccc(NS(C)(=O)=O)cc1` [16-5, N-(4-t-Butylbenzyl)-N′-{(1R)-1-[4-(methylsulfonylamino)phenyl]ethyl}thiourea]: the figures for the Ki on rat VR1 [1] and on rat VR1 [2] (setting [3]) were 4.52 nM and 40.8 nM, respectively.

As for `C[C@@H](NC(=S)NCc1ccc(C(C)(C)C)cc1)c1ccc(NS(C)(=O)=O)c(F)c1` [17-7, (R)—N-(4-t-Butylbenzyl)-N′-{1-[3-fluoro-4-(methylsulfonylamino)phenyl]ethyl}thiourea], the results for the Ki on rat VR1 [1] and on rat VR1 [2] were 39.4 nM and 32.8 nM, respectively.

`C[C@H](NC(=S)NCc1ccc(C(C)(C)C)cc1)c1ccc(NS(C)(=O)=O)c(F)c1` [17-8, (S)—N-(4-t-Butylbenzyl)-N′-{1-[3-fluoro-4-(methylsulfonylamino)phenyl]ethyl}thiourea]: the Ki on rat VR1 [1] is 4310 nM; on rat VR1 [2] it was 2580 nM.

For the molecule `Cc1ccc(CC(CNC(=S)N[C@H](C)c2ccc(NS(C)(=O)=O)cc2)COC(=O)C(C)(C)C)cc1C` (stereo partly drawn) [18-6, N-[2-(3,4-Dimethylbenzyl)-3-(pivaloyloxy)propyl]-N′-{(1R)-1-[4-(methylsulfonylamino)phenyl]ethyl}thiourea], the Ki turned out to be 6.86 nM at rat VR1 [1] and 6.1 nM on rat VR1 [2].

Regarding `Cc1ccc(C[C@H](CNC(=S)N[C@H](C)c2ccc(NS(C)(=O)=O)cc2)COC(=O)C(C)(C)C)cc1C` [18-7, N-[(2R)-2-(3,4-Dimethylbenzyl)-3-(pivaloyloxy)propyl]-N′-{(1R)-1-[4-(methylsulfonylamino)phenyl]ethyl}thiourea], the inhibition constant (Ki) at rat VR1 [1] was 7.14 nM; at rat VR1 [2], 15.2 nM.

As for `C[C@@H](NC(=S)N[C@H](COC(=O)C(C)(C)C)Cc1ccccc1)c1ccc(NS(C)(=O)=O)cc1` [19-14, N-[(2S)-3-phenyl-1-pivaloyloxy-2-propyl]-N′-[(R)-α-methyl-4-(methylsulfonylamino)benzy]thiourea], the figures for the Ki on rat VR1 [1] and on rat VR1 [2] were 290 nM and 272 nM, respectively.

As for `Cc1ccc(CCC(=O)NC(C)c2ccc(NS(C)(=O)=O)c(F)c2)cc1C` (centres unmarked) [24-4, N-{1-[3-Fluoro-4-(methylsulfonylamino)phenyl]ethyl}-3-(3,4-dimethylphenyl)propanamide], the melting point fell in the range of 176 to 177 °C. For the same molecule, the inhibition constant (Ki) on rat VR1 [1] was found to be 4130 nM.

With `Oc1cc2c(cc1O)CN(C(=S)NCCc1ccc(Cl)cc1)CCC2` [capsazepine, reference compound], the Ki on rat VR1 [1] worked out at 520 nM; on rat VR1 [2] (setting [3]), 1300 nM.

Regarding “N-(4-t-Butylbenzyl)-N-{1-[4-(methylsulfonylamino)phenyl]ethyl}thiourea [15-1]”, the inhibition constant (Ki) turned out to be 14.7 nM on rat VR1 [1] and 59.3 nM at rat VR1 [2] (setting [3]).
